Test results: article PMC9477868, “Gut bacteria induce oviposition preference through ovipositor recognition in fruit fly” (Communications Biology, 2022)

What was measured:
Type in all cases: binding
Obp56d [1] = molecular target: T1, Obp56d (Bactrocera dorsalis, UniProt A0A6I9V3V6); experiment: fluorescence titration, microplate reader (ex […] nm); conditions: 2 uM Obp, 2-16 uM 1-NPN, 50 mM Tris-HCl, pH 7.4; fluorescent probe; one-site fit
T1 construct: gene LOC105221864; recombinant, E. coli Rosetta (DE3), pET-32a(+) vector, designed from CDS; about 29 kDa on SDS-PAGE; anion-exchange purified
T1 sequence (A0A6I9V3V6 19-138): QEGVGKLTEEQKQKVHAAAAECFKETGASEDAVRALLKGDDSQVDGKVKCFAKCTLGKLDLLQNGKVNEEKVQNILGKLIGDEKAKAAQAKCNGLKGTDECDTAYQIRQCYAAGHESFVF

Obp56d-2 [2] = molecular target: T2, Obp56d-2 (Bactrocera dorsalis, UniProt A0ACM8RD04); experiment: as above; conditions: 2 uM Obp, 2-16 uM 1-NPN, 50 mM Tris-HCl, pH 7.4; fluorescent probe; one-site fit
T2 construct: gene LOC105221865; recombinant, E. coli Rosetta (DE3), pET-32a(+) vector, designed from CDS; about 29 kDa on SDS-PAGE; anion-exchange purified
T2 sequence (A0ACM8RD04 19-138): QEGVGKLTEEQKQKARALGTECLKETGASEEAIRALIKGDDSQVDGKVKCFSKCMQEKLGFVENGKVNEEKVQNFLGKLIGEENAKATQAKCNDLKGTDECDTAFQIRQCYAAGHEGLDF

Obp56d-2 [3] = molecular target: T2, Obp56d-2; experiment: competitive displacement of 1-NPN fluorescence; conditions: 3-HA 0-16 uM; 2 uM Obp, 50 mM Tris-HCl, pH 7.4; competitive with 1-NPN
Obp56d [4] = molecular target: T1, Obp56d; experiment: competitive displacement of 1-NPN fluorescence; conditions: 3-HA 0-16 uM; 2 uM Obp, 50 mM Tris-HCl, pH 7.4; competitive with 1-NPN

## c1ccc(Nc2cccc3ccccc23)cc1 [1-NPN]
Obp56d [1]
  dissociation constant: Then the dissociation constants of the Obp56d and Obp56d-2 were generated
Obp56d-2 [2]
  dissociation constant: Then the dissociation constants of the Obp56d and Obp56d-2 were generated

## CCC=CCCOC(C)=O [3-HA]
Obp56d-2 [3]
  % reduction of relative fluorescence intensity of the Obp/1-NPN complex: > 50%
Obp56d [4]
  % reduction of relative fluorescence intensity of the Obp/1-NPN complex: > 50%
